The text below walks through data of ChEMBL document CHEMBL3351598, “Strategies for the modulation of phase II metabolism in a series of PKCε inhibitors” (Bioorg Med Chem Lett, 2014).

The nature of the series: AUC in beagle dog at 10 mg/kg, iv bolus dose. The format is ADME, organism-based, Canis lupus familiaris. More on the design: dose 10 mg/kg, route intravenous. The settings on record: plasma.

Compound `N#CC1(c2cc(CCO)cc(-c3ccnc4[nH]nc(C(F)(F)F)c34)c2)CC1` had an AUC of 130 ng·h/mL.

As for `N#CC1(c2cc(C[C@@H](O)CO)cc(-c3ccnc4[nH]nc(C(F)(F)F)c34)c2)CC1`, the exposure (AUC) came out at 4400 ng·h/mL.
